Data: US8937084B2, “Nitrogen containing morphinan derivatives and the use thereof” (Purdue Pharma L.P., priority 2012, dated 2015)

Key:
Type in all cases: biochemical
μ-opioid receptor [1] = target: T1, μ-opioid receptor (Homo sapiens (Human), UniProt P35372); experiment: μ-opioid receptor [35S]GTPγS functional assay, U-2 OS cells; settings: for EC50: GTPγS; for Emax: relative to DAMGO
Protocol: (§1) μ-Opioid Receptor Functional Assay Procedures: [^35S]GTPγS functional assays were conducted using freshly thawed μ-receptor membranes prepared in-house from a cell line expressing recombinant μ opioid receptor in a HEK-293, CHO or U-2 OS cell background, or purchased from a commercial source (Perkin Elmer, Shelton, Conn.; or DiscovRx, Fremont, Calif.). Assay reactions were prepared by sequentially adding the following reagents to binding buffer (100 mM NaCl, 10 mM MgCl2, 20 mM HEPES, pH 7.4) on ice (final concentrations indicated): membrane protein (0.026 mg/mL), saponin ([…]), GDP ([…]) and [^35S]GTPγS (0.20 nM; Perkin Elmer, Shelton, Conn.). The prepared membrane solution (190 μl/well) was transferred to 96-shallow well polypropylene plates containing 10 μl of 20× concentrated stock solutions of the agonist [D-Ala^2, N-methyl-Phe^4 Gly-ol^5]-enkephalin (DAMGO) prepared in dimethyl sulfoxide (DMSO). Plates were incubated for 30 min at about 25° C. with shaking. Reactions were terminated by rapid filtration onto 96-well Unifilter GF/B filter plates (Perkin Elmer, Shelton, Conn.) using a 96-well tissue harvester (Perkin Elmer, Shelton, Conn.) followed by three filtration washes with 200 μl of ice-cold wash buffer (10 mM NaH2PO4, 10 mM Na2HPO4, pH 7.4). Filter plates were subsequently dried at 50° C. for 2-3 hours. BetaScint scintillation cocktail (Perkin Elmer, Shelton, Conn.) was added (50 μl/well) and plates were counted using a Packard Top-Count for 1 min/well. Data were analyzed using the sigmoidal dose-response curve fitting functions in GraphPad PRISM v. 3.0, or an in-house function for non-linear, sigmoidal dose-response curve-fitting.
(§2) μ-Opioid Receptor Functional Data: μ GTP EC50 is the concentration of a compound providing 50% of the maximal response for the compound at a μ-opioid receptor.
(§3) μ GTP Emax (%) is the maximal effect elicited by a compound relative to the effect elicited by DAMGO, a standard μ agonist. Generally, the μ GTP Emax (%) value measures the efficacy of a compound to treat or prevent pain or other Conditions.
(§4) The following TABLE 3 provides results on the activity response of certain Compounds of the Invention at the μ- and κ-opioid receptors determined as described above using U-2 OS cells.

κ opioid receptor [2] = target: T2, κ opioid receptor (Homo sapiens (Human), UniProt P41145); experiment: κ-opioid receptor [35S]GTPγS functional assay, U-2 OS cells; settings: for EC50: GTPγS; for Emax: relative to U69,593
Protocol: (§5) κ-Opioid Receptor Functional Assay Procedures: Functional [^35S]GTPγS binding assays were conducted as follows. κ opioid receptor membrane solution was prepared by sequentially adding final concentrations of 0.026 μg/μl κ membrane protein (in-house), 10 μg/mL saponin, 3 μM GDP and 0.20 nM [^35S]GTPγS to binding buffer (100 mM NaCl, 10 mM MgCl2, 20 mM HEPES, pH 7.4) on ice. The prepared membrane solution (190 μl/well) was transferred to 96-shallow well polypropylene plates containing 10 μl of 20× concentrated stock solutions of agonist prepared in DMSO. Plates were incubated for 30 min at a temperature of about 25° C. with shaking. Reactions were terminated by rapid filtration onto 96-well Unifilter GF/B filter plates (Perkin Elmer, Shelton, Conn.) using a 96-well tissue harvester (Packard) and followed by three filtration washes with 200 μl ice-cold binding buffer (10 mM NaH2PO4, 10 mM Na2HPO4, pH 7.4). Filter plates were subsequently dried at 50° C. for 2-3 hours. Fifty μl/well scintillation cocktail (Perkin Elmer, Shelton, Conn.) was added and plates were counted in a Packard Top-Count for 1 min/well.
(§6) κ-Oploid Receptor Functional Data: κ GTP EC50 is the concentration of a compound providing 50% of the maximal response for the compound at a K receptor.
(§7) κ GTP Emax (%) is the maximal effect elicited by a compound relative to the effect elicited by U69,593.
as §4

κ opioid receptor [3] = target: T2, κ opioid receptor; experiment: κ-opioid receptor [35S]GTPγS functional assay, HEK-293 or CHO cells; settings: for EC50: GTPγS; for Emax: relative to U69,593
Protocol: as §5, §6, §7
(§8) In TABLE 2, activity response of certain Compounds of the Invention to the μ-, δ- and κ-opioid receptors was determined as described above for functional assays using HEK-293 or CHO cells.

μ-opioid receptor [4] = target: T1, μ-opioid receptor; experiment: μ-opioid receptor [35S]GTPγS functional assay, HEK-293 or CHO cells; settings: for EC50: GTPγS; for Emax: relative to DAMGO
Protocol: as §1, §2, §3, §8

SMILES	EC50 (μ-opioid receptor [1])	Emax (μ-opioid receptor [1])	EC50 (κ opioid receptor [2])	Emax (κ opioid receptor [2])	EC50 (κ opioid receptor [3])	Emax (κ opioid receptor [3])	EC50 (μ-opioid receptor [4])	Emax (μ-opioid receptor [4])
O=C1C[C@]23CCN(CC4CC4)[C@H](Cc4ccc(O)cc42)[C@@H]3CN1 [Compound 7, (4aS,5R,10bS)-13-(cyclopropylmethyl)-9-hydroxy-4,4-a,5,6-tetrahydro-1H-5,10b-(epiminoethano)benzo[f]isoquinolin-2(3H)-one]	3.43 ± 0.43 nM	40.7 ± 3.18%	0.21 ± 0.014 nM	106 ± 1.53%	5.1 ± 1.62 nM	74.7%	13.1 ± 3.75 nM	28.7%
Oc1ccc2c(c1)[C@@]13CCNC[C@H]1[C@@H](C2)N(CC1CC1)CC3 [Compound 13, (4aS,5R,10bR)-13-(cyclopropylmethyl)-2,3,4,4a,5,6-hexahydro-1H-5,10b-(epiminoethano)benzo[f]isoquinolin-9-ol]					29.5 ± 14.8 nM	78.3%	29.4 ± 7.66 nM	61%
NC(=O)CN1C[C@H]2[C@H]3Cc4ccc(O)cc4[C@@]2(CCN3CC2CC2)CC1=O [Compound 4, 2-((4aS,5R,10bS)— 13-(cyclopropylmethyl)-9-hydroxy-2-oxo-4,4-a,5,6-tetrahydro-1H-5,10b-(epiminoethano)benzo[f]isoquinolin-3(2H)-yl)acetamide]	7.05 ± 0.17 nM	39 ± 3.51%	1.65 ± 0.054 nM	104 ± 2.6%	80.8 ± 5.95 nM	62%	9.11 ± 1.22 nM	24%
O=C(O)CN1C[C@H]2[C@H]3Cc4ccc(O)cc4[C@@]2(CCN3CC2CC2)CC1=O [Compound 8, 2-((4aS,5R,10bS)-13-(cyclopropylmethyl)-9-hydroxy-2-oxo-4,4-a,5,6-tetrahydro-1H-5,10b-(epiminoethano)benzo[f]isoquinolin-3(2H)-yl)acetic acid]					14.9 ± 2.71 nM	66%	6.06 ± 2.1 nM	12.3%
O=C1C[C@]23CCN(CC4CC4)[C@H](Cc4ccc(O)cc42)[C@@H]3CN1Cc1ccc(O)cc1 [Compound 5, (4aS,5R,10bS)-13-(cyclopropylmethyl)-9-hydroxy-3-(4-hydroxybenzyl)-4,4-a,5,6-tetrahydro-1H-5,10b-(epiminoethano)benzo[f]isoquinolin-2(3H)-one]					102 ± 19.9 nM	42%	45.9 ± 14 nM	30%
